The Kd is the equilibrium constant for the complex coming apart. A word on the IC50: it is the concentration at which inhibition is half-maximal.

In patent US8173606B2, “Sulfated oligosaccharide derivatives” (Progen Pharmaceuticals Limited, priority 2004, dated 2012) one finds Kd and IC50 data, which are given here for 2 substances.

In one assay the target is FGF-1 (Homo sapiens, UniProt P05230). Kind of assay: SPR based solution affinity assay, growth factor binding (FGF-1). The following applies: heparin-coated sensorchip, HBS-EP buffer, 25° C.; read-out: Kd aFGF. How it is done: (§1) Binding affinities of ligands for the growth factors FGF-1, FGF-2 and VEGF were measured using a surface plasmon resonance (SPR) based solution affinity assay. The principle of the assay is that heparin immobilised on a sensorchip surface distinguishes between free and bound growth factor in an equilibrated solution of the growth factor and a ligand. Upon injection of the solution, the free growth factor binds to the immobilised heparin, is detected as an increase in the SPR response and its concentration thus determined. A decrease in the free growth factor concentration as a function of the ligand concentration allows for the calculation of the dissociation constant, Kd. It is important to note that ligand binding to the growth factors can only be detected when the interaction involves the HS binding site, thus eliminating the chance of evaluating non-specific binding to other sites on the protein. A 1:1 stoichiometry has been assumed for all protein:ligand interactions.
(§2) For the testing of growth factor binding activity, heparin-coated sensorchips were used. Their preparation, via immobilisation of biotinylated BSA-heparin on a streptavidin-coated sensorchip, has been described.[5] Heparin has also been immobilised via aldehyde coupling using either adipic acid dihydrazide or 1,4-diaminobutane. […] Ligands binding to FGF-1 and VEGF were measured in HBS-EP buffer (10 mM HEPES, pH 7.4, 150 mM NaCl, 3.0 mM EDTA and 0.005% (v/v) polysorbate 20), while binding to FGF-2 was measured in HBS-EP buffer containing 0.3 M NaCl.[5] […] For each assay mixture, 50-200 μL of solution was injected at 5-40 μL/min and the relative binding response measured. […]
(§3) Sensorgram data were analysed using the BIAevaluation software (BIAcore). […]
(§4) [formula] and the binding equation[5] can be expressed as
(§5) The Kd values given are the values fit, using the binding equation, to a plot of [P] versus [L]total. Where Kd values were measured in duplicate, the values represent the average of the duplicate measurements. […]

In another assay the target is FGF-2 (Homo sapiens, UniProt P09038). Briefly: SPR based solution affinity assay, growth factor binding (FGF-2). The settings on record: heparin-coated sensorchip, HBS-EP buffer containing 0.3 M NaCl, 25° C.; read-out: Kd bFGF. How it is done:
as §1, §2, §3, §4, §5

Another assay has as its target T1, VEGF (Homo sapiens, UniProt P15692).
T1 sequence (P15692 27-191 isoform P15692-4): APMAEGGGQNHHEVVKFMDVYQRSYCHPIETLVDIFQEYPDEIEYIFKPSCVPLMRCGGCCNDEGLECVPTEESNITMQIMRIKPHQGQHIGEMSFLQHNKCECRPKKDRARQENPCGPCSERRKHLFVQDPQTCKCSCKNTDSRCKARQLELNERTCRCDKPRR
Briefly: SPR based solution affinity assay, growth factor binding (VEGF). The following applies: heparin-coated sensorchip, HBS-EP buffer, 25° C. How it is done:
as §1, §2, §3, §4, §5

For assay [1], the system named is herpes simplex virus (HSV-1) KOS321 strain. Kind of assay: Antiviral assay, HSV-1 infectivity (plaque forming units). In kind it is cell-based. The following applies: African green monkey kidney cells; virus pre-incubated with compound 10 min. From the text:
In panel A, the results are expressed as a percentage of the number of viral plaque forming units (PFU) formed in cells infected with the compound-treated virions relative to mock-treated controls. In panel B, the results are expressed as a percentage of the average area of 20 viral plaques formed in the continuous presence of compound relative to mock-treated control cells. Monolayer cultures of African green monkey kidney cells[35] and herpes simplex virus (HSV-1) KOS321 strain[36] were used throughout. The antiviral assays on the compounds were performed as described by Nyberg et al.[13] Briefly, the effects of the compounds on the infection of cells by exogenously added virus were tested by mixing serial fivefold dilutions of compound (at 0.032-20 μM) with approximately 200 plaque forming units of the virus. Following incubation of the virus and compound for 10 min at room temperature, the mixture was added to the cells and left on the cell monolayer for 2 h at 37° C. Subsequently, the inoculum was aspirated and replaced with an overlay medium of 1% methylcellulose solution in Eagle's minimum essential medium (EMEM). The viral plaques that developed after incubation of cells for 3 days at 37° C. were stained with 1% crystal violet solution and counted. The effects of the compounds on cell-to-cell spread of HSV-1 were tested by adding serial fivefold dilutions of compound (at 0.032-20 μM) in the serum-free overlay medium to cells after their infection with HSV-1. After incubation of the compound with the cells for 3 days at 37° C., the images of 20 plaques were captured and subjected to area determination using IM500 software (Leica).

FGF-1, sequence (P05230 whole entry, species assumed): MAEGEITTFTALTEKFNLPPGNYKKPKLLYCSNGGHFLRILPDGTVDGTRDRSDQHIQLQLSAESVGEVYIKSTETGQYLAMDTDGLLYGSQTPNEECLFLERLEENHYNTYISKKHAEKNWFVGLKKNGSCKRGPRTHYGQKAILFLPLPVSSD
FGF-2, sequence (P09038 143-288, species assumed): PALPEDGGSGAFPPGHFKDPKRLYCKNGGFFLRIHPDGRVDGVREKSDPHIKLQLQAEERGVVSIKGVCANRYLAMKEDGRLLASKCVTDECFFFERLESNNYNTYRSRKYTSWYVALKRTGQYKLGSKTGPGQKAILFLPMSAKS

On to Benzyl Glycoside Polysulfate [PG500], for which the Kd was found to be 0.12 ± 0.025 nM at FGF-1, 86 ± 7 nM at FGF-2 and 1.72 ± 0.19 nM at VEGF. In addition, the IC50 in assay [1] was found to be 2000 nM.
For Octyl Glycoside Polysulfate [PG501], the Kd at FGF-1 was found to be 0.144 ± 0.008 nM; on FGF-2, 68.3 ± 2.9 nM; at VEGF, 1.67 ± 0.11 nM. Moreover, the IC50 in assay [1] worked out at 1000 nM.
